Measured values: patent publication US8063103B2, “Polymorphs of acyl sulfonamides” (Roche Palo Alto LLC, priority 2008, dated 2011)
Structures can show the parent of a compound that is named as a salt. Where two headings read alike, the source gives them in different places.

Method: Amorphous state of Ib can be prepared by dissolving Form VIII in 82% t-butanol/18% water at a drug concentration of ˜6 mg/mL. This solution was lyophilized overnight (˜18 hours) to form the amorphous material.

## CCC(=O)NS(=O)(=O)c1ccc(NC(=O)Cc2ccc(Br)c(Oc3cc(Cl)cc(C#N)c3)c2F)c(Cl)c1 [amorphous material, 2-[4-Bromo-3-(3-chloro-5-cyano-phenoxy)-2-fluoro-phenyl]-N-(2-chloro-4-propionylsulfamoyl-phenyl)-acetamide, sodium salt]
25C/60 RH, at least one week
  stability of amorphous material on storage: stable at 25C/60 RH for at least one week
40C/75 RH
  stability of amorphous material on storage: not at 40C/75 RH
